# In patent publication US4564639A, “N-(2,6-Difluorobenzoyl-N-'-(2-fluoro-4-halophenyl)urea” (priority 1982, dated 1986):
# Like-named read-outs stand apart in the source and are kept apart here.
# Key:
# Spodoptera litura [1] = assay: Insecticidal effect against Spodoptera litura, leaf spraying (Table 1, I); format: in vivo; settings: read-out: mortality (I, spraying concn.)
# Method: (§1) Insecticidal effect against Spodoptera litura
# (a) The test compounds which comprise:
# The above test compounds and control compounds were each processed into wettable powders in accordance with the same formula as in Example 9, followed by dilution with water to prepare emulsions containing 0.4 and 2 ppm, respectively. A spreader, Dyne® (produced by Takeda Chemical Industries, Japan), was added to the emulsions in the proportion of 0.03 volume % against the total volume, respectively, and 20 ml of each of the emulsions so obtained was sprayed by use of a spray gun (spraying pressure of 1 kg/cm^2) on seedlings (14 days after germination) of soybean grown in pots in a spray chamber. 2 hours after spraying, two true leaves were cut away and contained each in their respective ice-cream cup (diameter of 6 cm and depth of 4 cm), into which 10 third-instar larvae of Spodoptera litura was released. After the releasing of larvae, the cups were placed in a room (25° C.), and the number of larvae, […] was checked.
# (§2) The mortalities in Test Examples 1 through 3 were calculated by the formula as mentioned below: [formula]
# Spodoptera litura [2] = assay: Insecticidal effect against Spodoptera litura, direct spraying on larvae (Table 1, II); format: in vivo; settings: read-out: mortality (II, spraying concn.)
# Method: as §1
# (b) By the same procedure as in Example 7, the test compounds comprising the compounds of the present invention, i.e. Compound Nos. 1, 2, 3 and 4, and control compounds, i.e. Compounds A through G, were each processed into emulsifiable concentrates, which were then diluted with water to produce the aqueous solutions (containing 0.03 % v/v of added spreader, Dyne® (produced by Takeda Chemical Industries, Japan)) containing 10 and 50 ppm of the test compounds, respectively. 20 ml of each of the aqueous solutions was sprayed on 10 third-instar larvae of Spodoptera litura placed in a cage of wire netting. 30 minutes after the spraying, the larvae were taken out of the cage of wire netting and placed in an ice cream cup (diameter of 6 cm and depth of 4 cm) containing soybean leaves, and a number of dead larvae was checked in accordance with the same method as the examination method as stated under (a) except that the larvae were allowed to stand for 48 hours in place of 96 hours.
# as §2
# Spodoptera litura [3] = assay: Insecticidal effect against Spodoptera litura, soil treatment with granules (Table 1, III); format: in vivo; settings: 96 h, 250 mg of 2 weight % granules in soil of potted soybean, leaves cut 10 days after treatment, third-instar larvae, read-out: mortality (III, treatment amount)
# Method: as §1
# (c) Using the compounds of the present invention, i.e. Compound Nos. 1, 2, 3 and 4, and control compounds, i.e. Compounds A through G, as the test compounds, granules containing 2 weight % of the test compounds were prepared by the same procedure as in Example 13, and 250 and 500 mg of each of the granules were admixed, for the purpose of treatment, into the soil around roots of soybean plants grown in pots (diameter of 9 cm), respectively. The pots so treated were placed in a glass room (28° C.), and 10 days after the treatment, two true leaves were cut away and contained each in ice cream cups (diameter of 6 cm and depth of 4 cm). 10 third-instar larvae of Spodoptera litura were released into each of the ice cream cups, and a number of dead larvae was checked in accordance with the same method as the examination method as stated under (a).
# as §2
# Chilo suppressalis = assay: Insecticidal effect against Chilo suppressalis, dipped rice seedlings; format: in vivo; settings: 96 h, read-out: Mortality, % (spraying concn.)
# Method: as §2
# Insecticidal effect against Chilo suppressalis
# By the same procedure as in Example 9, the test compounds comprising the compounds of the present invention, i.e. Compound Nos. 1, 2, 3 and 4, and control compounds, i.e. Compounds A through G, were processed into wettable powder, respectively, and the aqueous solutions of 0.4 and 2 ppm in concentration were prepared therefrom by the same method as stated under (a) of Test Example 1, whereby 10 rice seedlings (the height of a plant of 2 cm) were dipped in each of the insecticide solutions for 30 minutes. The seedlings thus treated were placed in the respective glass containers (diameter of 2 cm and depth of 5 cm), into which 10 third-instar larvae of Chilo suppressalis were released. The containers were covered with aluminum foil and allowed to stand in a room (25° C.), and a number of dead larvae 4 days after the larvae were released was checked.
# Plutella xylostella = assay: Insecticidal effect against Plutella xylostella, sprayed radish seedlings; format: in vivo
# Method: as §2
# Insecticidal effect against Plutella xylostella
# By the same procedure as in Example 9, the test compounds comprising the compounds of the present invention, i.e., Compound Nos. 1, 2, 3 and 4, and control compounds, i.e. Compounds A through G, were processed into wettable powder, and the aqueous solutions of 50 ppm in concentration were prepared therefrom by the same method as stated under (a) of Test Example 1. 20 ml of each of the aqueous solutions was sprayed on seedlings of radish (25 days after germination) grown in pots in accordance with the same method as described under (a) of Test Example 1. 2 hours after the spraying, two true leaves were cut away and contained in their respective ice cream cups (diameter of 6 cm and depth of 4 cm), into which 10 second-instar larvae of Plutella xylostella were released. After the larvae were released, the above-mentioned cups were placed in a room (25° C.), and a number of dead larvae after 48 hours was checked.
# Oral toxicity in mice = settings: mouse, in vivo
# plant body = assay: Penetration into the plant body (general statement); settings: in words
# Toxicity to fishes = assay: Toxicity to fishes; set-up: species or system Orizias latipes; settings: in vivo; 72 hours later, orange-red killifish; read-out: TLm (the concentration at which 50% of the test fish dies)
# insect = assay: Insecticidal and ovicidal effect (general statement); format: in vivo; settings: in words
# [4] = 50 ppm sprayed on radish seedlings, second-instar larvae, 48 hours, read-out: Mortality, %
# [5] = 0.4 ppm, wettable powder emulsion sprayed on soybean seedlings, third-instar larvae, 96 hours
# [6] = 2 ppm, wettable powder emulsion sprayed on soybean seedlings, third-instar larvae, 96 hours
# [7] = emulsifiable concentrate solution sprayed on third-instar larvae, 48 hours
# [8] = 0.4 ppm, rice seedlings dipped 30 minutes, third-instar larvae, 4 days
# [9] = 2 ppm, rice seedlings dipped 30 minutes, third-instar larvae, 4 days
SMILES,"mortality at 0.4 ppm (Spodoptera litura [1]; in Glycine max, 96 h) [%]",mortality at 10 ppm (Spodoptera litura [2]; 48 h) [%],mortality at 250 mg (Spodoptera litura [3]) [%],mortality at 0.4 ppm (Chilo suppressalis) [%],mortality at 2 ppm (Chilo suppressalis) [%],mortality at 50 ppm (Plutella xylostella; [4]) [%],LD50 (Oral toxicity in mice) [mg/kg],action to penetrate into the plant body (plant body),mortality at 0.4 ppm (Spodoptera litura [1]; [5]) [%],mortality at 2 ppm (Spodoptera litura [1]; [6]) [%],"mortality at 10 ppm (Spodoptera litura [2]; 10 ppm, emulsifiable concentrate solution sprayed on third-instar larvae, 48 hours) [%]",mortality at 50 ppm (Spodoptera litura [2]; [7]) [%],mortality at 0.4 ppm (Chilo suppressalis; [8]) [%],mortality at 2 ppm (Chilo suppressalis; [9]) [%],mortality at 50 ppm (Plutella xylostella; 48 h) [%],LC50 at 72 h (Toxicity to fishes) [µg/mL],insecticidal and ovicidal effect (insect),"mortality at 2 ppm (Spodoptera litura [1]; in Glycine max, 96 h) [%]"
"O=C(NC(=O)c1c(F)cccc1F)Nc1ccc(F)cc1F [Compound No. 3, N-2,6-difluorobenzoyl-N'-2,4-difluorophenyl urea]",80,35,100,40,80,95,≥ 3000,excellent action to penetrate into the plant body,–,–,–,–,–,–,–,–,–,–
"O=C(NC(=O)c1c(F)cccc1F)Nc1ccc(Cl)cc1 [Compound A, N-2,6-difluorobenzoyl-N'-4-chlorophenylurea]",–,–,–,–,–,–,–,–,20,30,0,10,5,40,20,–,–,–
"O=C(NC(=O)c1c(F)cccc1F)Nc1ccc(Cl)c(Cl)c1 [Compound E, N-2,6-difluorobenzoyl-N'-3,4-dichlorophenylurea]",–,–,0,–,–,40,–,–,20,40,–,–,0,0,–,–,–,–
"O=C(NC(=O)c1c(F)cccc1F)Nc1ccc(Cl)cc1F [Compound No. 1, N-2,6-Difluorobenzoyl-N'-2-fluoro-4-chlorophenylurea]",–,60,–,80,100,100,≥ 3000,–,–,–,–,–,–,–,–,≥ 10,excellent insecticidal and ovicidal effect,–
"O=C(NC(=O)c1c(Cl)cccc1Cl)Nc1ccc(Cl)c(F)c1 [Compound C, N-2,6-dichlorobenzoyl-N'-3-fluoro-4-chlorophenylurea]",–,–,0,–,–,10,–,–,20,30,–,–,0,0,–,–,–,–
"O=C(NC(=O)c1c(F)cccc1F)Nc1ccc(I)cc1F [Compound No. 4, N-2,6-difluorobenzoyl-N'-2-fluoro-4-iodophenylurea]",100,65,55,75,100,100,≥ 3000,–,–,–,–,–,–,–,–,–,–,100
"O=C(NC(=O)c1c(Cl)cccc1Cl)Nc1ccc(Cl)cc1Cl [Compound B, N-2,6-dichlorobenzoyl-N'-2,4-dichlorophenylurea]",–,–,0,–,–,0,–,–,–,–,–,–,0,0,–,–,–,–
"O=C(NC(=O)c1c(F)cccc1F)Nc1ccc(I)c(F)c1 [Compound G, N-2,6-difluorobenzoyl-N'-3-fluoro-4-iodophenylurea]",–,–,0,–,–,50,–,–,5,35,–,5,10,55,–,–,–,–
"O=C(NC(=O)c1c(F)cccc1F)Nc1ccc(Br)cc1F [Compound No. 2, N-2,6-difluorobenzoyl-N'-2-fluoro-4-bromophenylurea]",–,60,80,70,100,100,≥ 3000,–,–,–,–,–,–,–,–,–,excellent insecticidal and ovicidal effect,–
"O=C(NC(=O)c1c(Cl)cccc1Cl)Nc1ccc(F)cc1F [Compound F, N-2,6-dichlorobenzoyl-N'-2,4-difluorophenylurea]",–,–,0,–,–,20,–,–,–,–,–,–,0,0,–,–,–,–
"O=C(NC(=O)c1c(F)cccc1F)Nc1ccc(Cl)c(F)c1 [Compound D, N-2,6-difluorobenzoyl-N'-3-fluoro-4-chlorophenylurea]",–,–,0,–,–,45,–,–,25,45,–,30,10,45,–,–,–,–
